# Patent US10131652B2, “Pyrimidinyloxy benzene derivatives as herbicides” (E. I. DU PONT DE NEMOURS AND COMPANY, priority 2014, dated 2018)
# Like-named read-outs stand apart in the source and are kept apart here.
# Columns and labels:
# Format in all cases: in vivo
# wild oat (Avena fatua) = test: Test E pre-/postemergence plant response; conditions: scale 0 to 100, read-out: Plant response rating, Oat, Wild; for pest or weed control at 16 g/ha: 16 g ai/ha; for pest or weed control at 31 g/ha: 31 g ai/ha; for pest or weed control at 62 g/ha: 62 g ai/ha; for pest or weed control at 125 g/ha: 125 g ai/ha
# Procedure, shortened: (§1)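 Pre-emergence: seeds sown in silt loam soil and sprayed with test chemicals in a non-phytotoxic solvent/surfactant mix. Post-emergence: plants at 2–18 cm (1- to 4-leaf stage) in peat/vermiculite medium treated with the same formulation. Visual rating versus controls after 7–21 days, 0 (no effect) to 100 (complete control).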
# [1] = system: blackgrass (Alopecurus myosuroides); test: Test E pre-/postemergence plant response; conditions: scale 0 to 100, read-out: Plant response rating, Blackgrass; for pest or weed control at 16 g/ha: 16 g ai/ha; for pest or weed control at 31 g/ha: 31 g ai/ha; for pest or weed control at 62 g/ha: 62 g ai/ha; for pest or weed control at 125 g/ha: 125 g ai/ha
# Procedure, shortened: as §1
# [2] = system: oilseed rape (Brassica napus); test: Test E pre-/postemergence plant response; conditions: scale 0 to 100, read-out: Plant response rating, Oilseed Rape; for plant injury at 16 g/ha: 16 g ai/ha; for plant injury at 31 g/ha: 31 g ai/ha; for plant injury at 62 g/ha: 62 g ai/ha; for plant injury at 125 g/ha: 125 g ai/ha
# Procedure, shortened: as §1
# [3] = system: chamomile (scentless chamomile, Matricaria inodora); test: Test E pre-/postemergence plant response; conditions: Tripleurospermum inodorum, scale 0 to 100, read-out: Plant response rating, Chamomile; for pest or weed control at 16 g/ha: 16 g ai/ha; for pest or weed control at 31 g/ha: 31 g ai/ha; for pest or weed control at 62 g/ha: 62 g ai/ha; for pest or weed control at 125 g/ha: 125 g ai/ha
# Procedure, shortened: as §1
# kochia (Kochia scoparia) = test: Test E pre-/postemergence plant response; conditions: Bassia scoparia, scale 0 to 100, read-out: Plant response rating, Kochia; for pest or weed control at 16 g/ha: 16 g ai/ha; for pest or weed control at 31 g/ha: 31 g ai/ha; for pest or weed control at 62 g/ha: 62 g ai/ha; for pest or weed control at 125 g/ha: 125 g ai/ha
# Procedure, shortened: as §1
# [4] = system: Brazilian crabgrass (Digitaria horizontalis); test: Test F pre-/postemergence plant response; conditions: Digitaria horizontalis, scale 0 to 100, read-out: Plant response rating, Crabgrass, Brazil
# Procedure, shortened: (§2)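 Formulation: non-phytotoxic solvent mix + surfactant. Preemergence: applied to seeded silt loam. Postemergence: foliar, 1- to 4-leaf plants, 2–18 cm. Greenhouse hold 14–21 days; visual score vs controls, 0 = no effect, 100 = complete control; dash = not tested.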
# [5] = system: johnsongrass (Sorghum halepense); test: Test F pre-/postemergence plant response; conditions: Sorghum halepense, pre-emergence, scale 0 to 100, read-out: Plant response rating, Johnsongrass
# Procedure, shortened: as §2
# [6] = system: wild poinsettia (Euphorbia heterophylla); test: Test F pre-/postemergence plant response; conditions: Euphorbia heterophylla, scale 0 to 100, read-out: Plant response rating, Poinsettia, Wild
# Procedure, shortened: as §2
# [7] = system: green foxtail (Setaria viridis); test: Test F pre-/postemergence plant response; conditions: Setaria viridis, pre-emergence, Preemergence, scale 0 to 100, read-out: Plant response rating, Foxtail, Green
# Procedure, shortened: as §2
# [8] = post-emergence, 16 g ai/ha Postemergence
# [9] = post-emergence, 31 g ai/ha Postemergence
# [10] = post-emergence, 62 g ai/ha Postemergence
# [11] = post-emergence, 125 g ai/ha Postemergence
# [12] = pre-emergence, 16 g ai/ha Preemergence
# [13] = pre-emergence, 31 g ai/ha Preemergence
# [14] = pre-emergence, 125 g ai/ha Preemergence
smiles,measurement,setting,value
"Fc1cccc(Oc2ncc(Cl)cn2)c1-c1cc(C(F)F)no1 [Compound 144, 5-chloro-2-[2-[3-(difluoromethyl)-5-isoxazolyl]-3-fluorophenoxy]pyrimidine]",pest or weed control at 16 g/ha,"wild oat (Avena fatua); post-emergence, Postemergence",20%
same,pest or weed control at 31 g/ha,"wild oat (Avena fatua); post-emergence, Postemergence",25%
same,pest or weed control at 62 g/ha,"wild oat (Avena fatua); post-emergence, Postemergence",65%
same,pest or weed control at 125 g/ha,"wild oat (Avena fatua); post-emergence, Postemergence",90%
same,pest or weed control at 16 g/ha,"wild oat (Avena fatua); pre-emergence, Preemergence",35%
same,pest or weed control at 31 g/ha,"wild oat (Avena fatua); pre-emergence, Preemergence",30%
same,pest or weed control at 62 g/ha,"wild oat (Avena fatua); pre-emergence, Preemergence",65%
same,pest or weed control at 125 g/ha,"wild oat (Avena fatua); pre-emergence, Preemergence",75%
same,pest or weed control at 16 g/ha,"[1]; post-emergence, Postemergence",25%
same,pest or weed control at 31 g/ha,"[1]; post-emergence, Postemergence",50%
same,pest or weed control at 62 g/ha,"[1]; post-emergence, Postemergence",60%
same,pest or weed control at 125 g/ha,"[1]; post-emergence, Postemergence",85%
same,pest or weed control at 16 g/ha,"[1]; pre-emergence, Preemergence",15%
same,pest or weed control at 31 g/ha,"[1]; pre-emergence, Preemergence",75%
same,pest or weed control at 62 g/ha,"[1]; pre-emergence, Preemergence",98%
same,pest or weed control at 125 g/ha,"[1]; pre-emergence, Preemergence",100%
same,plant injury at 16 g/ha,"[2]; post-emergence, Postemergence",100%
same,plant injury at 31 g/ha,"[2]; post-emergence, Postemergence",100%
same,plant injury at 62 g/ha,"[2]; post-emergence, Postemergence",100%
same,plant injury at 125 g/ha,"[2]; post-emergence, Postemergence",100%
same,plant injury at 16 g/ha,"[2]; pre-emergence, Preemergence",35%
same,plant injury at 31 g/ha,"[2]; pre-emergence, Preemergence",80%
same,plant injury at 62 g/ha,"[2]; pre-emergence, Preemergence",100%
same,plant injury at 125 g/ha,"[2]; pre-emergence, Preemergence",100%
same,pest or weed control at 16 g/ha,"[3]; post-emergence, Postemergence",80%
same,pest or weed control at 31 g/ha,"[3]; post-emergence, Postemergence",75%
same,pest or weed control at 62 g/ha,"[3]; post-emergence, Postemergence",80%
same,pest or weed control at 125 g/ha,"[3]; post-emergence, Postemergence",95%
same,pest or weed control at 16 g/ha,"[3]; pre-emergence, Preemergence",15%
same,pest or weed control at 31 g/ha,"[3]; pre-emergence, Preemergence",20%
same,pest or weed control at 62 g/ha,"[3]; pre-emergence, Preemergence",100%
same,pest or weed control at 125 g/ha,"[3]; pre-emergence, Preemergence",100%
same,pest or weed control at 16 g/ha,"kochia (Kochia scoparia); post-emergence, Postemergence",100%
same,pest or weed control at 31 g/ha,"kochia (Kochia scoparia); post-emergence, Postemergence",100%
same,pest or weed control at 62 g/ha,"kochia (Kochia scoparia); post-emergence, Postemergence",100%
same,pest or weed control at 125 g/ha,"kochia (Kochia scoparia); post-emergence, Postemergence",100%
same,pest or weed control at 16 g/ha,"kochia (Kochia scoparia); pre-emergence, Preemergence",98%
same,pest or weed control at 31 g/ha,"kochia (Kochia scoparia); pre-emergence, Preemergence",100%
same,pest or weed control at 62 g/ha,"kochia (Kochia scoparia); pre-emergence, Preemergence",100%
same,pest or weed control at 125 g/ha,"kochia (Kochia scoparia); pre-emergence, Preemergence",100%
same,pest or weed control at 16 g/ha,[4]; [8],40%
same,pest or weed control at 31 g/ha,[4]; [9],50%
same,pest or weed control at 62 g/ha,[4]; [10],40%
same,pest or weed control at 125 g/ha,[4]; [11],55%
same,pest or weed control at 16 g/ha,[4]; [12],75%
same,pest or weed control at 31 g/ha,[4]; [13],95%
same,pest or weed control at 62 g/ha,"[4]; pre-emergence, 62 g ai/ha Preemergence",98%
same,pest or weed control at 125 g/ha,[4]; [14],100%
same,pest or weed control at 16 g/ha,[5]; 16 g ai/ha Preemergence,0%
same,pest or weed control at 31 g/ha,[5]; 31 g ai/ha Preemergence,0%
same,pest or weed control at 125 g/ha,[5]; 125 g ai/ha Preemergence,70%
same,pest or weed control at 62 g/ha,[5]; Preemergence,30%
same,pest or weed control at 16 g/ha,[6]; [8],50%
same,pest or weed control at 31 g/ha,[6]; [9],50%
same,pest or weed control at 62 g/ha,[6]; [10],70%
same,pest or weed control at 125 g/ha,[6]; [11],65%
same,pest or weed control at 16 g/ha,[6]; [12],0%
same,pest or weed control at 31 g/ha,[6]; [13],0%
same,pest or weed control at 125 g/ha,[6]; [14],35%
same,pest or weed control at 62 g/ha,"[6]; pre-emergence, Preemergence",20%
same,pest or weed control at 16 g/ha,[7]; 16 g ai/ha,25%
same,pest or weed control at 31 g/ha,[7]; 31 g ai/ha,95%
same,pest or weed control at 125 g/ha,[7]; 125 g ai/ha,100%
same,pest or weed control at 62 g/ha,[7],98%
